Positions of bridges follow the written chain, without caps; N, C: chain ends. Non-standard residues stand in square brackets, D forms with d. Residues, ends and D or L forms follow the SMILES beside them.
Columns and labels:
[1] = Solubility in aqueous conditions; format: physicochemical
[2] = molecular target: T1, human DUB module (hDUBm; USP22, ATXN7, ATXN7L3, ENY2) (Homo sapiens, UniProt Q9UPT9); assay: Ub-AMC deubiquitination assay, human DUB module; format: biochemical; details: 200 nM DUB, 1 μM Ub-AMC; read-out: Ki (apparent, Morrison approximation), Ub-AMC cleavage
T1 construct: 6xHis (TEV-cleavable) (N, cleaved yes); made in house; host or cells: High Five insect cells (baculovirus, Bac2Bac; virus amplified in Sf9)
Procedure: FIG. 2A is a graph of initial rates of Ub-AMC cleavage by hDUB module as a function of substrate concentration. […] FIGS. 2B-2G are graphs of each cyclic peptide, as indicated, tested for its ability to inhibit Ub-AMC cleavage in the presence of increasing amounts of the peptide into a reaction with a fixed amount of DUB (200 nM) and Ub-AMC (1 μM). Ki values were determined for each curve using the Morrison Ki approximation.
Ub-AMC deubiquitination assay A working stock mixture of either yDUBm or hDUBm was prepared in the presence of either DMSO (mock) or a dilution series of the cyclic peptide. […] Each enzyme:peptide mixture was incubated for 30 min at 30° C. in the case of yDUBm, and 37° C. in the case of hDUBm, with each enzyme complex at 1.033× the desired concentration (207 nM). The enzyme:peptide mixture ([…]) was added to 1 μL of 30 μM U b-AMC (7-amino-4-methylcoumarin) (Boston Biochem), for a final concentration of 200 nM DUBm, the indicated cyclic peptide concentration, and 1 μM Ub-AMC. DUB activity was measured by observing the increase in AMC fluorescence in a plate reader, and the initial rate of fluorescence increase was calculated and plotted as a function of inhibitor concentration (FIGS. 2B-2I). The Ki values were determined using the Morrison approximation of enzyme inhibition equilibria within Prism (Graphpad).
The cyclic peptides that constituted potential inhibitors were chemically synthesized by solid phase peptide synthesis and tested for their effectiveness and specificity as inhibitors in vitro. Since the enzyme kinetics of the human DUB module had not previously been characterized, hDUBm activity was assayed using the fluorogenic substrate, ubiquitin-amino methyl coumarin (Ub-AMC) (FIG. 2A).

[3] = tested on: H2B-Ub levels in HEK293T cells; assay: Cell-based assay of H2B-Ub levels (histone extraction, western blot); set-up: species or system human; details: 5 μM, two hours, normalized to H3
Procedure: Bottom: anti-histone H3 loading control.
Cell-based Assay HEK293T cells were purchased from ATCC (CRL-3216) and cultures were expanded for at least 10 passages in Dulbecco's Modified Eagle Medium (DMEM) supplemented with 10% fetal bovine serum (FBS) in T75 flasks incubated in a 37° C. and 5% CO2 cabinet before any manipulation. Once cells were mature, HEK293T cells were grown to 80% confluence in 6-well plates, the media were aspirated, and media with reduced FBS (DMEM, 2% FBS) and 5 μM cyclic peptide were introduced. After two hours, the media were aspirated, and the cells were collected by scraping (˜1×10^6 cells per well). The cells were then washed in 1× PBS twice followed by histone extraction (Active Motif). The extracted histones were then western blotted for H2B-Ub levels (Cell Signaling, 5546S), using H3 western blotting (Abcam, ab1791) to normalize loading.
Each cyclic peptide was introduced as a supplement to the growth medium of HEK293T cells, the histones were extracted from each culture after two hours of exposure, and the levels of H2B-Ub was quantified by immunoblot. Levels of H2B-Ub were compared to control cells that were treated with DMSO, the yD1 cyclic peptide that has no effect on USP22 activity, or the broad-spectrum cell permeable DUB inhibitor. PR-619. The relative abundance of histone H3 was used to control for differences in nuclear extraction.

[4] = molecular target: human DUB module (hDUBm) on H2B-K120 ubiquitinated nucleosomes (Homo sapiens, UniProt Q9UPT9); assay: Deubiquitination of nucleosomal H2B by hDUBm; details: 1 μM cyclic peptide, 200 nM hDUBm, 1 uM H2B-Ub nucleosome
Chain of human DUB module (hDUBm) on H2B-K120 ubiquitinated nucleosomes (Q9UPT9 whole entry): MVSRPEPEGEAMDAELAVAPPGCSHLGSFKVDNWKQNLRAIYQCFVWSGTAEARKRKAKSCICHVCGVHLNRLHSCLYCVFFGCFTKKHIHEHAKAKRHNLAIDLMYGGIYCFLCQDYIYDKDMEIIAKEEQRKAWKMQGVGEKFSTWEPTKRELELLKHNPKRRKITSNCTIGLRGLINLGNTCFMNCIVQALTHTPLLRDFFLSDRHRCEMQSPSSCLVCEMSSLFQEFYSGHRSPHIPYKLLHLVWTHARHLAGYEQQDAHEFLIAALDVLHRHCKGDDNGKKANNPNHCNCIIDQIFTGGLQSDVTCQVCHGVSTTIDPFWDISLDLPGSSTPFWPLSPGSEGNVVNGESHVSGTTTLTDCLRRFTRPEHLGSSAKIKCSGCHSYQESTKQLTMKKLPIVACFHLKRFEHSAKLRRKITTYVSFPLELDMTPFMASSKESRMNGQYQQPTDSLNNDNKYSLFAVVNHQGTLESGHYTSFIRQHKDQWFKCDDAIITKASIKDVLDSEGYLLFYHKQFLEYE
Chain of human DUB module (hDUBm) on H2B-K120 ubiquitinated nucleosomes (O15265 3-151 partner limits assumed): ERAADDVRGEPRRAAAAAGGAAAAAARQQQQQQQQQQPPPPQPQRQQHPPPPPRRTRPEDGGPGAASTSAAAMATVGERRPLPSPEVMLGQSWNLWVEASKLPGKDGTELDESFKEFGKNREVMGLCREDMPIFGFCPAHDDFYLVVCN
Chain of human DUB module (hDUBm) on H2B-K120 ubiquitinated nucleosomes (Q14CW9 whole entry partner): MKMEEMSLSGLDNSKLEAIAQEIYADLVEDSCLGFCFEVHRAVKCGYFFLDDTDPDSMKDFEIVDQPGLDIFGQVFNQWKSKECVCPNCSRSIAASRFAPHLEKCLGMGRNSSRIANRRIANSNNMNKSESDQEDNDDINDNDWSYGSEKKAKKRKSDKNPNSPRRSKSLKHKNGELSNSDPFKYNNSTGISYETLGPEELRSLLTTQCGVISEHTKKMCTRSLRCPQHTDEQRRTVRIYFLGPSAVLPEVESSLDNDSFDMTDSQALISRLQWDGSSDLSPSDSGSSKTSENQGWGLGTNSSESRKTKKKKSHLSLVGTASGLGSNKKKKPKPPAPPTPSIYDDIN
Chain of human DUB module (hDUBm) on H2B-K120 ubiquitinated nucleosomes (Q9NPA8 whole entry partner): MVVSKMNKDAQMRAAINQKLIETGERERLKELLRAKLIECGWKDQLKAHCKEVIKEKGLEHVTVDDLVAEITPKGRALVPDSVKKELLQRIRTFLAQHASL
Procedure: Deubiquitination of nucleosomal H2B Recombinant human mononucleosomes containing histone H2B ubiquitinated at K120 (H2B-Ub) were obtained from Epicypher (dNuc, 16-0370) and diluted to 2 μM with reaction buffer. Both hDUBm and inhibitor peptides were diluted from concentrated stocks with reaction buffer (10 mM HEPES pH 7.5, 150 mM NaCl, 1 μM ZnCl2, and 0.2 mM TCEP) to a final concentration of 400 nM DUB module and 2 μM cyclic peptide and incubated at 37° C. for 20 minutes. Reactions were initiated by combining equal volumes of the enzyme-peptide mixture and nucleosomes, resulting in final concentrations of 200 nM hDUBm, 1 μM cyclic peptide, and 1 uM H2B-Ub nucleosome. Time points of the reaction were quenched with SDS sample buffer, separated by SDS-PAGE (Invitrogen, Bolt gels), and stained with Sypro Ruby (Life Technologies). Gels were imaged and quantitated (BioRad product info), using the H3 band as an independent load control to normalize the band intensities of H2B-Ub. Experiments were done in triplicate and analyzed using Prism (GraphPad).
To test the effectiveness of the inhibitors on a native-like substrate, the ability of each cyclic peptide to inhibit DUB activity on nucleosomes ubiquitinated at H2B-K120 was assayed.

T1 sequence (Q9UPT9 whole entry): as the sequence (Q9UPT9 whole entry) above
T1 sequence (O15265 3-151 partner limits assumed): as the sequence (O15265 3-151 partner limits assumed) above
T1 sequence (Q14CW9 whole entry partner): as the sequence (Q14CW9 whole entry partner) above
T1 sequence (Q9NPA8 whole entry partner): as the sequence (Q9NPA8 whole entry partner) above

CC(C)C[C@@H]1NC(=O)[C@H](Cc2ccc(O)cc2)NC(=O)CSC[C@@H](C(N)=O)NC(=O)[C@H](Cc2ccc(O)cc2)NC(=O)[C@H](CC(C)C)NC(=O)[C@H](CCCNC(=N)N)NC(=O)[C@H](CC(C)C)NC(=O)[C@H](CO)NC(=O)[C@H](Cc2c[nH]c3ccccc23)NC(=O)CNC(=O)[C@H](Cc2ccccc2)NC(=O)[C@H](CO)NC(=O)[C@H](Cc2ccccc2)NC(=O)[C@H](C)NC(=O)[C@H](CO)NC(=O)[C@H](CC(=O)O)NC(=O)[C@H](Cc2c[nH]cn2)NC1=O [yL1] ({CH2CO}-YLHDSAFSFGWSLRLYC-NH2; thioether N-17)
solubility in aqueous conditions [1]: insoluble in aqueous conditions

CC[C@H](C)[C@@H]1NC(=O)[C@H](Cc2c[nH]cn2)NC(=O)[C@H](CC(=O)O)NC(=O)[C@H](CO)NC(=O)[C@H](Cc2c[nH]c3ccccc23)NC(=O)[C@H](Cc2ccccc2)NC(=O)[C@H](CCCNC(=N)N)NC(=O)[C@H](Cc2ccccc2)NC(=O)[C@H](CC(N)=O)NC(=O)[C@H](CC(C)C)NC(=O)[C@H]([C@@H](C)O)NC(=O)[C@H](Cc2ccc(O)cc2)NC(=O)CSC[C@@H](C(N)=O)NC(=O)[C@H](CO)NC(=O)[C@H](Cc2ccc(O)cc2)NC(=O)[C@H](Cc2c[nH]c3ccccc23)NC(=O)[C@H](CO)NC1=O [hL1] ({CH2CO}-YTLNFRFWSDHISWYSC-NH2; thioether N-17)
Ki [2]: < 100 nM

N#CSc1cc(SC#N)c(N)nc1N [PR-619]
change of H2B-Ub levels [3]: minor increase

CC[C@H](C)[C@@H]1NC(=O)[C@H](Cc2c[nH]c3ccccc23)NC(=O)[C@@H](Cc2ccc(O)cc2)NC(=O)CSC[C@@H](C(N)=O)NC(=O)[C@H](Cc2ccccc2)NC(=O)[C@H](CO)NC(=O)[C@H](CCCCN)NC(=O)[C@H](CO)NC(=O)[C@H](CC(C)C)NC(=O)CNC(=O)[C@H](CCCNC(=N)N)NC(=O)[C@H](Cc2ccc(O)cc2)NC(=O)[C@H](CO)NC(=O)[C@H](Cc2c[nH]cn2)NC(=O)[C@H]([C@@H](C)O)NC1=O [hD4] ({CH2CO}-[dY]WITHSYRGLSKSFC-NH2; thioether N-15)
Ki [2]: 804 nM

CC(C)C[C@@H]1NC(=O)[C@H](Cc2c[nH]c3ccccc23)NC(=O)[C@H](CO)NC(=O)[C@H](CCCNC(=N)N)NC(=O)[C@H](CC(C)C)NC(=O)[C@H](CCCNC(=N)N)NC(=O)[C@H](Cc2ccc(O)cc2)NC(=O)[C@H](Cc2ccc(O)cc2)NC(=O)[C@H](CO)NC(=O)[C@@H]2CCCN2C(=O)CNC(=O)[C@H](CC(N)=O)NC(=O)[C@@H](Cc2ccc(O)cc2)NC(=O)CSC[C@@H](C(N)=O)NC(=O)[C@H](CO)NC(=O)[C@H](CO)NC1=O [hD3] ({CH2CO}-[dY]NGPSYYRLRSWLSSC-NH2; thioether N-16)
inhibition of nucleosomal H2B-Ub cleavage by hDUBm [4]: inhibit the enzymatic activity

C[C@@H]1NC(=O)CNC(=O)[C@H](CCCNC(=N)N)NC(=O)[C@H](Cc2ccc(O)cc2)NC(=O)[C@H](CO)NC(=O)[C@H](Cc2c[nH]c3ccccc23)NC(=O)[C@H](CCC(N)=O)NC(=O)[C@H](Cc2c[nH]cn2)NC(=O)[C@@H](Cc2ccc(O)cc2)NC(=O)CSC[C@@H](C(N)=O)NC(=O)[C@H](CO)NC(=O)[C@H](CCCNC(=N)N)NC(=O)[C@H](Cc2ccc(O)cc2)NC(=O)[C@H]([C@@H](C)O)NC1=O [hD2] ({CH2CO}-[dY]HQWSYRGATYRSC-NH2; thioether N-14)
Ki [2]: < 100 nM

Source: US20240228543A1, “CYCLIC PEPTIDE INHIBITORS OF USP22” (THE JOHNS HOPKINS UNIVERSITY, priority 2021, published 2024)
